Reference: patent publication US10201536B2, “Methods and pharmaceutical compositions for the treatment of bacterial infections in patients suffering from cirrhosis” (INSERM (INSTITUT NATIONAL DE LA SANTE ET DE LA RECHERCHE …, priority 2015, dated 2019)
Residues, ends and D or L forms follow the SMILES beside them. *: point of attachment. MeOSuc = COC(=O)CCC(=O)*; CH2Cl = ClC*

Key:
Type in all cases: cell-based
neutrophil elastase [1] = biological target: T1, neutrophil elastase (Homo sapiens, UniProt P08246); test: fMLP-induced depletion of gp91phox and p22phox in healthy PMN with elastase inhibitor; settings: 100 μM 15 min before fMLP (1 μM) 45 min
T1 construct: a cell-free degranulation supernatant obtained from fMLP (1 μM, 2 min) stimulated PMN; endogenous in cells; host or cells: healthy human PMN stimulated with fMLP, or their cell-free degranulation supernatant
T1 sequence (P08246 30-267): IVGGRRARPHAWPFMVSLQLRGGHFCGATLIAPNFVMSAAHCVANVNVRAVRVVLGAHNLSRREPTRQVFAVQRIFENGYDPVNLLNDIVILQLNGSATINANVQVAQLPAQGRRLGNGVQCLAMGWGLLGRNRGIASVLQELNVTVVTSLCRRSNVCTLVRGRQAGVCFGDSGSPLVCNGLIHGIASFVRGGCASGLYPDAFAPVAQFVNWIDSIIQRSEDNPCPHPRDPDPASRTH
Method: (§1) FIG. 8. Elastase induces the degradation of gp91phox and p22phox in healthy PMN. (A and B) Western-blot analysis and densitometric quantification of gp91phox and p22phox in healthy PMN treated in the absence or presence of elastase at 0.1 and 0.5 units for 1 hour. (C and D) Western-blot analysis densitometric quantification of gp91phox and […] in healthy PMN treated in the absence or presence of the elastase inhibitor (NEI) at 100 μM for 15 min before stimulation with fMLP (1 μM) for 45 min. (E) Western-blot analysis densitometric quantification of gp91phox in healthy PMN pretreated in the absence or presence of the elastase inhibitor (NEI) at 100 μM for 15 min before incubation for 45 min with a cell-free degranulation supernatant obtained from fMLP (1 μM, 2 min) stimulated PMN. Blots are representative of 4 experiments and densitometric analyses are cumulative and expressed as percentage of the actin level. […] (F) Sensorgrams of the PMN specific binding and dissociation to the anti-gp91phox antibody (7D5) coated to the CM3 sensorchip, analysed with the Biacore X100, as a function of time. […] Data are representative of 3 independent experiments are expressed as resonance unit (RU). (G) Flow cytometry quantification of the Gp91phox expression at the surface of PMN treated or not (Control) with 0.5 unit Elastase at 4° C. […]

neutrophil elastase [2] = biological target: T1, neutrophil elastase; test: gp91phox degradation in healthy PMN by cell-free degranulation supernatant with elastase inhibitor; settings: 100 μM 15 min pretreatment, 45 min supernatant
Method: as §1

elastase [3] = biological target: T2, elastase (Homo sapiens, UniProt P08246); test: gp91phox surface expression of healthy PMN treated with plasma from cirrhotic patients, with NEI; settings: 12 H, 25% plasma, 100 μM
T2 construct: with plasma of healthy volunteers or cirrhotic patients, (25% plasma in 1 ml RPMI containing 5×10^6 PMN); from tissue; host or cells: plasma of cirrhotic patients, incubated with healthy human PMN
T2 sequence (P08246 30-267): T1 sequence (P08246 30-267)
Method: (§2) FIG. 9. Plasma from cirrhotic patients reduces gp91phox expression at the surface of healthy PMN and ROS production in NEI-sensitive manner. PMN were pretreated for 12 H at 37° C. with RPMI (control) or with plasma of healthy volunteers or cirrhotic patients, (25% plasma in 1 ml RPMI containing 5×10^6 PMN) either in the absence or presence of the elastase inhibitor NEI (100 μM). PMN were labelled with the anti-gp91phox FITC-coupled antibody. (A) Quantification of the number of positive cells labeled with the anti-gp91phox FITC-coupled antibody (7D5) by Flow cytometry, expressed as percentage of control values. […] (C, D) Time course production of superoxide induced by PMA by healthy PMN which were pretreated for 12 H in the absence (Buffer/RPMI) or presence of plasma from healthy volunteers and cirrhotic patients, either with or without 100 μM NEI. (E) Production of superoxide expressed as percentage of control values (mean±SEM, n=5). […]
(§3) Granulocyte elastase is released during infectious processes and has been proposed to be helpful for the diagnosis of patients with spontaneous bacterial peritonitis (Casafon et al., 1999), a major complication of the alcoholic liver cirrhosis. […] Consistent with this observation, patients' plasmas inhibited NOX2 activity of PMN measured by the cytochrome C assay (FIGS. 9C-E) and chemiluminescence.

elastase [4] = biological target: T2, elastase; test: NOX2 activity (superoxide production) of healthy PMN treated with plasma from cirrhotic patients, with NEI; settings: 12 H, 25% plasma, 100 μM, PMA-induced superoxide
Method: as §2, §3

fMLP-induced depletion of gp91phox and p22phox (neutrophil elastase [1]): prevented
gp91phox degradation by cell-free degranulation supernatant (neutrophil elastase [2]): blocked gp91phox degradation
decrease of gp91phox positive cells and surface expression caused by patients' plasma (elastase [3]): prevented
inhibition of NOX2 activity by patients' plasma (elastase [4]): prevented the inhibitory effects
Structure (SMILES): COC(=O)CCC(=O)N[C@@H](C)C(=O)N[C@@H](C)C(=O)N1CCC[C@H]1C(=O)N[C@H](C(=O)CCl)C(C)C [NEI, MeOSuc-AAPV-CMK] (MeOSuc-AAPV-CH2Cl)
